Experimental findings from patent publication US11111237B2, “Bicyclic compound and use thereof” (SK BIOPHARMACEUTICALS CO., LTD., priority 2019, dated 2021) are described below.

Molecules are shown by their SMILES. pIC50: −log10 of the molar value. Structures can show the parent of a compound that is named as a salt.

The target of the assay is PRMT5-MEP50 enzyme complex (Homo sapiens (Human), UniProt O14744). The assay can be described thus: PRMT5 enzyme activity in vitro assay (methylation of histone H4R3, ELISA absorbance at 450 nm). As to conditions: SAM, histone H4 peptide, room temperature 2 hours, 8 points from 10 μM to 0.128 nM. Type of assay: biochemical. In short, it runs like this: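 Human PRMT5-MEP50 was prepared at 5 μg/mL with SAM at 2 μM and reacted 2 h at room temperature on plate-coated histone H4 (1-20) peptide. An 8-point 1:5 compound series ran from 10 μM to 0.128 nM. H4R3 methylation was detected by antibody/HRP ELISA at 450 nm to give IC50.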
Chain of PRMT5-MEP50 enzyme complex (O14744 2-637): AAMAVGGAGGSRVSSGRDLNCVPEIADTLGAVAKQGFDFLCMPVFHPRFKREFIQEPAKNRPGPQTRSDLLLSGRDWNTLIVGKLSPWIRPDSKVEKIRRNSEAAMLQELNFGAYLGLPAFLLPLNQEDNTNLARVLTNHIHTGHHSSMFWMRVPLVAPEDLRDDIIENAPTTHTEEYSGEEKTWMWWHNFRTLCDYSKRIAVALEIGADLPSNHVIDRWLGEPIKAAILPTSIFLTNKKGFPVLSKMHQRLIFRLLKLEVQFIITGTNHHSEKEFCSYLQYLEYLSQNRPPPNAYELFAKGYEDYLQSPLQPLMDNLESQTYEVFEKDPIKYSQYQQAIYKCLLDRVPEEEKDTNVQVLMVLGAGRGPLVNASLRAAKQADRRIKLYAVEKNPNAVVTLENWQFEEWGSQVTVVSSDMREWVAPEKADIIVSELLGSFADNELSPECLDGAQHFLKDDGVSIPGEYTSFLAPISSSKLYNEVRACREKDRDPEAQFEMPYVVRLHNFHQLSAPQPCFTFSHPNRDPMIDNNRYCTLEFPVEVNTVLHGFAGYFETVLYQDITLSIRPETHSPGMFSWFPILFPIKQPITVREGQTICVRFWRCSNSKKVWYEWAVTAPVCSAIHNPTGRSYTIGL
Chain of PRMT5-MEP50 enzyme complex (Q9BQA1 2-342 partner): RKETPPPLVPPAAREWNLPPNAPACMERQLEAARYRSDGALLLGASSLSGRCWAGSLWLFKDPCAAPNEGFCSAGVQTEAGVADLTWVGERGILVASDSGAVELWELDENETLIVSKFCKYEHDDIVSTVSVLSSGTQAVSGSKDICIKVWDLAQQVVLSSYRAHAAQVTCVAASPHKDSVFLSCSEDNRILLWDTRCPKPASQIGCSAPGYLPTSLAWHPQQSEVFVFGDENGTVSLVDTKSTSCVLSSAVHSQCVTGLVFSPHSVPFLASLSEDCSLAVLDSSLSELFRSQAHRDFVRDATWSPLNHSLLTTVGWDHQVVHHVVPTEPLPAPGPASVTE
A general note: An ELISA detects its analyte on a solid surface through an enzyme-linked reagent.
As for `CC(C)(C)OC(=O)N1CCC(Oc2ccc3c(c2)OCCN(C[C@H](O)CN2CCc4ccccc4C2)C3=O)CC1` [Example 77, tert-butyl 4-[[4-[(2R)-3-(3,4-dihydro-1H-isoquinolin-2-yl)-2-hydroxy-propyl]-5-oxo-2,3-dihydro-1,4-benzoxazepin-8-yl]oxy]piperidine-1-carboxylate], the pIC50 (usually −log10 of the IC50, conventionally taken in molar units) is 7.00 to 9.00.
Next, `CCN(CC)C(=O)COc1ccc2c(c1)OCCN(C[C@H](O)CN1CCc3ccccc3C1)C2=O` [Example 75, 2-[[4-[(2R)-3-(3,4-dihydro-1H-isoquinolin-2-yl)-2-hydroxy-propyl]-5-oxo-2,3-dihydro-1,4-benzoxazepin-8-yl]oxy]-N,N-diethyl-acetamide]: 6.00 to 7.00; `O=C1c2ccccc2OCCN1CC(O)CN1CCc2ccccc2C1` (centres unmarked) [Example 147, 4-[3-(3,4-dihydro-1H-isoquinolin-2-yl)-2-hydroxy-propyl]-2,3-dihydro-1,4-benzoxazepin-5-one]: 6.00 to 7.00; `O=C1c2ccncc2OCCN1C[C@H](O)CN1CCc2ccccc2C1` [Example 152, 4-[(2R)-3-(3,4-dihydro-1H-isoquinolin-2-yl)-2-hydroxy-propyl]-2,3-dihydropyrido[4,3-f][1,4]oxazepin-5-one]: 6.00 to 7.00.
The result for `C[C@@H]1CN(C[C@H](O)CN2CCc3ccccc3C2)C(=O)c2ccc(O[C@@H]3CCN(C)C3)cc2O1` [Example 273, (2R)-4-[(2R)-3-(3,4-dihydro-1H-isoquinolin-2-yl)-2-hydroxy-propyl]-2-methyl-8-[(3R)-1-methylpyrrolidin-3-yl]oxy-2,3-dihydro-1,4-benzoxazepin-5-one] reads 6.00 to 7.00.
The result for `CC(O)CN1CCC(Oc2ccc3c(c2)OCCN(C[C@H](O)CN2CCc4ccccc4C2)C3=O)CC1` (stereo partly drawn) [Example 212, 4-[(2R)-3-(3,4-dihydro-1H-isoquinolin-2-yl)-2-hydroxy-propyl]-8-[[1-(2-hydroxypropyl)-4-piperidyl]oxy]-2,3-dihydro-1,4-benzoxazepin-5-one] reads 6.00 to 7.00; that for `CN(C1CCC(Oc2ccc3c(c2)OCCN(C[C@H](O)CN2CCc4ccccc4C2)C3=O)CC1)C1COC1` (stereo partly drawn) [Example 198, 4-[(2R)-3-(3,4-dihydro-1H-isoquinolin-2-yl)-2-hydroxypropyl]-8-[4-[methyl(oxetan-3-yl)amino]cyclohexoxy]-2,3-dihydro-1,4-benzoxazepin-5-one], 7.00 to 9.00.
In the case of `CC1CC(Oc2ccc3c(c2)N(C)CCN(C[C@H](O)CN2CCc4ccccc4C2)C3=O)CCN1` (stereo partly drawn) [Example 138, 4-[(2R)-3-(3,4-dihydro-1H-isoquinolin-2-yl)-2-hydroxy-propyl]-1-methyl-8-[(2-methyl-4-piperidyl)oxy]-2,3-dihydro-1,4-benzodiazepin-5-one; dihydrochloride], the negative-log IC50 (pIC50) is 6.00 to 7.00.
Compound `CC(C)(C)OC(=O)N1CC=C(c2ccc3c(c2)OCCN(C[C@H](O)CN2CCc4ccccc4C2)C3=O)CC1` [Example 14, Tert-butyl 4-[4-[(2R)-3-(3,4-dihydro-1H-isoquinolin-2-yl)-2-hydroxy-propyl]-5-oxo-2,3-dihydro-1,4-benzoxazepin-8-yl]-3,6-dihydro-2H-pyridine-1-carboxylate] gave a pIC50 of 6.00 to 7.00.
Next, `CCN1CC(COc2ccc3c(c2)OCCN(C[C@H](O)CN2CCc4ccccc4C2)C3=O)C1` [Example 97, 4-[(2R)-3-(3,4-dihydro-1H-isoquinolin-2-yl)-2-hydroxy-propyl]-8-[(1-ethylazetidin-3-yl)methoxy]-2,3-dihydro-1,4-benzoxazepin-5-one]: 6.00 to 7.00; `O=C1c2ccc(Br)cc2OCCN1C[C@H](O)CN1CCc2ccccc2C1` [Example 151, 8-bromo-4-[(2R)-3-(3,4-dihydro-1H-isoquinolin-2-yl)-2-hydroxy-propyl]-2,3-dihydro-1,4-benzoxazepin-5-one]: 7.00 to 9.00; `CCN1CC(Oc2ccc3c(c2)OCCN(C[C@H](O)CN2CCc4ccccc4C2)C3=O)C1` [Example 94, 4-[(2R)-3-(3,4-dihydro-1H-isoquinolin-2-yl)-2-hydroxy-propyl]-8-(1-ethylazetidin-3-yl)oxy-2,3-dihydro-1,4-benzoxazepin-5-one]: 6.00 to 7.00.
Next, `CN1CCC(COc2ccc3c(c2)OCCN(C[C@H](O)CN2CCc4ccccc4C2)C3=O)CC1` [Example 102, 4-[(2R)-3-(3,4-dihydro-1H-isoquinolin-2-yl)-2-hydroxy-propyl]-8-[(1-methyl-4-piperidyl)methoxy]-2,3-dihydro-1,4-benzoxazepin-5-one]: 6.00 to 7.00.
The result for `N#CN1CCC(Oc2ccc3c(c2)OCCN(C[C@H](O)CN2CCc4ccccc4C2)C3=O)CC1` [Example 166, 4-[[4-[(2R)-3-(3,4-dihydro-1H-isoquinolin-2-yl)-2-hydroxypropyl]-5-oxo-2,3-dihydro-1,4-benzoazepin-8-yl]oxy]piperidine-1-carbonitrile] reads 6.00 to 7.00; that for `O=C1c2ccc(OCC(F)(F)F)cc2OCCN1C[C@H](O)CN1CCc2ccccc2C1` [Example 71, 4-[(2R)-3-(3,4-dihydro-1H-isoquinolin-2-yl)-2-hydroxy-propyl]-8-(2,2,2-trifluoroethoxy)-2,3-dihydro-1,4-benzoxazepin-5-one], 6.00 to 7.00; that for `O=C1CCCN1CCOc1ccc2c(c1)OCCN(C[C@H](O)CN1CCc3ccccc3C1)C2=O` [Example 74, 4-[(2R)-3-(3,4-dihydro-1H-isoquinolin-2-yl)-2-hydroxy-propyl]-8-[2-(2-oxopyrrolidin-1-yl)ethoxy]-2,3-dihydro-1,4-benzoxazepin-5-one], 6.00 to 7.00.
Regarding `O=C1c2ccc(CN3CCCC(CO)C3)cc2OCCN1C[C@H](O)CN1CCc2ccccc2C1` (stereo partly drawn) [Example 37, 4-[(2R)-3-(3,4-dihydro-1H-isoquinolin-2-yl)-2-hydroxy-propyl]-8-[[3-(hydroxymethyl)-1-piperidyl]methyl]-2,3-dihydro-1,4-benzoxazepin-5-one], the pIC50 was 5.00 to 6.00.
Consider `CC1(C)CN(C[C@H](O)CN2CCc3ccccc3C2)C(=O)c2ccc(CN3CCN(C=O)CC3)cc2O1` [Example 169, 4-[[4-[(2R)-3-(3,4-dihydro-1H-isoquinolin-2-yl)-2-hydroxy-propyl]-2,2-dimethyl-5-oxo-3H-1,4-benzoxazepin-8-yl]methyl]piperazine-1-carbaldehyde], for which the negative-log IC50 (pIC50) is 6.00 to 7.00.
The result for `O=C1c2ccc(OS(=O)(=O)C(F)(F)F)cc2CCCN1C[C@H](O)CN1CCc2ccccc2C1` [Example 8, [2-[(2R)-3-(3,4-dihydro-1H-isoquinolin-2-yl)-2-hydroxy-propyl]-1-oxo-4,5-dihydro-3H-2-benzazepin-7-yl]trifluoromethanesulfonate] reads 6.00 to 7.00; that for `CCC(=O)c1ccc2c(c1)OCCN(C[C@H](O)CN1CCc3ccccc3C1)C2=O` [Example 214, 4-[(2R)-3-(3,4-dihydro-1H-isoquinolin-2-yl)-2-hydroxy-propyl]-8-propanoyl-2,3-dihydro-1,4-benzoxazepin-5-one], 6.00 to 7.00.
As to `CC1(CN2CCC(Oc3ccc4c(c3)OCCN(C[C@H](O)CN3CCc5ccccc5C3)C4=O)CC2)COC1` [Example 165, 4-[(2R)-3-(3,4-dihydro-1H-isoquinolin-2-yl)-2-hydroxypropyl]-8-[[1-[(3-methyloxetan-3-yl)methyl]-4-piperidyl]oxy]-2,3-dihydro-1,4-benzoxazepin-5-one], the pIC50 was 7.00 to 9.00.
Next, `O=C1c2ccc(OC3CN(C4COC4)C3)cc2OCCN1C[C@H](O)CN1CCc2ccccc2C1` [Example 96, 4-[(2R)-3-(3,4-dihydro-1H-isoquinolin-2-yl)-2-hydroxy-propyl]-8-[1-(oxetan-3-ylyl)azetidin-3-yl]oxy-2,3-dihydro-1,4-benzoxazepin-5-one]: 6.00 to 7.00; `O=C(c1ccc2c(c1)OCCN(C[C@H](O)CN1CCc3ccccc3C1)C2=O)N1CCC(F)(F)CC1` [Example 196, 8-(4,4-difluoropiperidine-1-carbonyl)-4-[(2R)-3-(3,4-dihydro-1H-isoquinolin-2-yl)-2-hydroxy-propyl]-2,3-dihydro-1,4-benzoxazepin-5-one]: 6.00 to 7.00.
The compound `O=C1c2ccc(OCC3CCCCC3)cc2OCCN1C[C@H](O)CN1CCc2ccccc2C1` [Example 66, 8-(cyclohexylmethoxy)-4-[(2R)-3-(3,4-dihydro-1H-isoquinolin-2-yl)-2-hydroxy-propyl]-2,3-dihydro-1,4-benzoxazepin-5-one] had a pIC50 of 6.00 to 7.00.
Next, `O=C1c2ccccc2CCCN1CC(O)CN1CCc2ccccc2C1` (centres unmarked) [Example 148, 2-[3-(3,4-dihydro-1H-isoquinolin-2-yl)-2-hydroxy-propyl]-4,5-dihydro-3H-2-benzazepin-1-one]: 5.00 to 6.00; `O=C1c2ccc(CN3CCC4(CC3)COC4)cc2OCCN1C[C@H](O)CN1CCc2ccccc2C1` [Example 251, 4-[(2R)-3-(3,4-dihydro-1H-isoquinolin-2-yl)-2-hydroxypropyl]-8-(2-oxa-7-azaspiro[3.5]nonan-7-ylmethyl)-2,3-dihydro-1,4-benzoxazepin-5-one]: 6.00 to 7.00.
The result for `O=C1c2ccc(CN3CCn4cccc4C3)cc2OCCN1C[C@H](O)CN1CCc2ccccc2C1` [Example 249, 4-[(2R)-3-(3,4-dihydro-1H-isoquinolin-2-yl)-2-hydroxypropyl]-8-(3,4-dihydro-1H-pyrrolo[1,2-a]pyrazin-2-ylmethyl)-2,3-dihydro-1,4-benzoxazepin-5-one] reads 6.00 to 7.00; that for `CC1CN(C(=O)c2ccc3c(c2)OCCN(C[C@H](O)CN2CCc4ccccc4C2)C3=O)CC(C)O1` (stereo partly drawn) [Example 187, 4-[(2R)-3-(3,4-dihydro-1H-isoquinolin-2-yl)-2-hydroxy-propyl]-8-(2,6-dimethylmorpholin-4-carbonyl)-2,3-dihydro-1,4-benzoxazepin-5-one], 6.00 to 7.00; that for `O=C1c2ccc(OC(F)(F)F)cc2CCCN1C[C@H](O)CN1CCc2ccccc2C1` [Example 6, 2-[(2R)-3-(3,4-dihydro-1H-isoquinolin-2-yl)-2-hydroxy-propyl]-7-(trifluoromethoxy)-4,5-dihydro-3H-2-benzazepin-1-one], 7.00 to 9.00.
